Where two headings read alike, the source gives them in different places.

This is an account of results in patent US20260258035A1, “FIVE-MEMBERED AND SIX-MEMBERED NITROGEN-CONTAINING COMPOUND, AND INTERMEDIATE, PREPARATION METHOD AND USE THEREOF” (HANGZHOU SYNRX THERAPEUTICS BIOMEDICAL TECHNOLOGY CO., LTD., priority 2022, published 2026).

One test addresses PARG (Homo sapiens, UniProt Q86W56). Put plainly: Biochemical assay (PARG, TFMU-ADPr substrate).
Another test relates to HCC1806. Put plainly: Cell viability assay (CellTiter-Glo). The settings on record: HCC1806, 7 days, CellTiter-Glo, read-out: IC50 (nM) in cell viability assay. In kind it is cell-based, Human.
The mark [1] stands for this setting: 4 nM PARG, 66.2 uM TFMU-ADPr, 3 min at room temperature.

Sequence of PARG (Q86W56 whole entry): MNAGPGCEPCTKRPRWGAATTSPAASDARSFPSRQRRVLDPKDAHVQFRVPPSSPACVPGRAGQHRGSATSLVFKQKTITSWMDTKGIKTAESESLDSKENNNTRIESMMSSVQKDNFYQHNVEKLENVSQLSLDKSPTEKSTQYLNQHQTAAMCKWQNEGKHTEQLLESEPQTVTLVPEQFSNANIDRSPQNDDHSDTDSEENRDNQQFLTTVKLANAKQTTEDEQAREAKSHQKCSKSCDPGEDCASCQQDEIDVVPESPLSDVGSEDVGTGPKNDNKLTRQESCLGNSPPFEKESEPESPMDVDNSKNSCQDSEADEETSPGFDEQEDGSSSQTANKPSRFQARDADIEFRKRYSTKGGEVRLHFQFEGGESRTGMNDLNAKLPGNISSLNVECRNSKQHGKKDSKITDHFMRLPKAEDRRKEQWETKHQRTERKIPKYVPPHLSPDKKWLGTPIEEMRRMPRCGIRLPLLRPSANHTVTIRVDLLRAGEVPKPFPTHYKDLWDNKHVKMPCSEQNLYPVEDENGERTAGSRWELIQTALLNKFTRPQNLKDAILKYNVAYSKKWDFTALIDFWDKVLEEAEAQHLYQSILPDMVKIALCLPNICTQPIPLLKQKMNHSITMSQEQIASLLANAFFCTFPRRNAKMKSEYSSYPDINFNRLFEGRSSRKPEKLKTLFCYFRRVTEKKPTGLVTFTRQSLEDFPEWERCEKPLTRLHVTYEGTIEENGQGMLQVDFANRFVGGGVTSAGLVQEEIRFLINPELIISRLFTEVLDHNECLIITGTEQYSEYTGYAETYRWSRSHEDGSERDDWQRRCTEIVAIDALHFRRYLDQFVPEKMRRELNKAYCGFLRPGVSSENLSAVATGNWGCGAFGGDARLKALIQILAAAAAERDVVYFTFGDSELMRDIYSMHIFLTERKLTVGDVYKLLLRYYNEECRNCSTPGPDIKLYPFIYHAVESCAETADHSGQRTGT

`N#CC1(NS(=O)(=O)c2cc(N3CCN(C(=O)C4CC4(F)F)CC3)c3cnc(-c4nnc(C(F)(F)F)s4)n3c2)CC1` (stereo not drawn) [Example 240, N-(1-cyanocyclopropyl)-8-(4-(2,2-difluorocyclopropane-1-carbonyl)piperazin-1-yl)-3-(5-(trifluoromethyl)-1,3,4-thiadiazol-2-yl)imidazo[1,5-a]pyridine-6-sulfonamide]: the IC50 was determined as 13.2 nM on PARG (PARG, TFMU-ADPr substrate) and 2440 nM in the test with HCC1806 (Homo sapiens, HCC1806, 168 h).
With `N#CC1(NS(=O)(=O)c2cc(N3CCC(n4ccnn4)CC3)c3cnc(-c4nnc(C(F)(F)F)s4)n3c2)CC1` [Example 218, 8-(4-(1H-1,2,3-triazol-1-yl)piperidin-1-yl)-N-(1-cyanocyclopropyl)-3-(5-(trifluoromethyl)-1,3,4-thiadiazol-2-yl)imidazo[1,5-a]pyridine-6-sulfonamide], the IC50 on PARG (PARG, TFMU-ADPr substrate) turned out to be 39.8 nM; with HCC1806 (Homo sapiens, HCC1806, 168 h) it was 1050 nM.
Regarding `CC(C)C(=O)N1CCN(c2cc(S(=O)(=O)NC34CC(F)(C3)C4)cn3c(-c4nnc(C(F)F)s4)ncc23)CC1` [Example 59, 3-(5-(difluoromethyl)-1,3,4-thiadiazol-2-yl)-N-(3-fluorobicyclo[1.1.1]pentan-1-yl)-8-(4-isobutyrylpiperazin-1-yl)imidazo[1,5-a]pyridine-6-sulfonamide], the concentration for half-maximal inhibition (IC50) on PARG (setting [1]) was more than 1000 nM; with HCC1806 (Homo sapiens, HCC1806, 168 h) it was more than 30000 nM.
Take `Cc1cnc(-c2cnn3c(N4CCN(C(=O)C(C)C)CC4)cc(S(=O)(=O)NC4(C#N)CC4)cc23)s1` [Example 29, N-(1-cyanocyclopropyl)-7-(4-isobutyrylpiperazin-1-yl)-3-(5-methylthiazol-2-yl)pyrazolo[1,5-a]pyridine-5-sulfonamide]: the IC50 against PARG (setting [1]) was less than 100 nM; on PARG (PARG, TFMU-ADPr substrate), 94.6 nM; with HCC1806 (Homo sapiens, HCC1806, 168 h), 5000 to 30000 nM.
Regarding `COc1ccc(C(=O)/C=C/C(=O)N2CCN(c3cc(S(=O)(=O)NC4CC4)cn4c(-c5nnc(C(F)(F)F)s5)ncc34)CC2)cc1` [Example 243, (E)-N-cyclopropyl-8-(4-(4-(4-methoxyphenyl)-4-oxobut-2-enoyl)piperazin-1-yl)-3-(5-(trifluoromethyl)-1,3,4-thiadiazol-2-yl)imidazo[1,5-a]pyridine-6-sulfonamide], the IC50 at PARG (PARG, TFMU-ADPr substrate) worked out at 871 nM; with HCC1806 (Homo sapiens, HCC1806, 168 h), 200 nM.
On to `CC(C)C(=O)N1CCN(c2cc(S(=O)(=O)N[C@H]3C[C@H]3F)cn3c(-c4nnc(C(F)F)s4)ncc23)CC1` [Example 82, 3-(5-(difluoromethyl)-1,3,4-thiadiazol-2-yl)-N-((1S,2R)-2-fluorocyclopropyl)-8-(4-isobutyrylpiperazin-1-yl)imidazo[1,5-a]pyridine-6-sulfonamide], for which the IC50 against PARG (setting [1]) is 100 to 500 nM; on PARG (PARG, TFMU-ADPr substrate) it was 209 nM; with HCC1806, 7050 nM; with HCC1806 (Homo sapiens, HCC1806, 168 h), 5000 to 30000 nM.
As for `CC1(NS(=O)(=O)c2cc(N3CCN[C@@H](CO)C3)c3cnc(-c4nnc(C(F)F)s4)n3c2)COC1` [Example 178, (R)-3-(5-(difluoromethyl)-1,3,4-thiadiazol-2-yl)-8-(3-(hydroxymethyl)piperazin-1-yl)-N-(3-methyloxetan-3-yl)imidazo[1,5-a]pyridine-6-sulfonamide], the IC50 at PARG (PARG, TFMU-ADPr substrate) is 1.18 nM; in the test on HCC1806 (Homo sapiens, HCC1806, 168 h) it was 945 nM.
Consider `N#CC1(NS(=O)(=O)c2cc(N3CCN(C(=O)[C@@H]4CCNC4)CC3)c3cnc(-c4nnc(C(F)(F)F)s4)n3c2)CC1` [Example 271, (R)-N-(1-cyanocyclopropyl)-8-(4-(pyrrolidine-3-carbonyl)piperazin-1-yl)-3-(5-(trifluoromethyl)-1,3,4-thiadiazol-2-yl)imidazo[1,5-a]pyridine-6-sulfonamide], for which the IC50 on PARG (PARG, TFMU-ADPr substrate) worked out at 11.5 nM; with HCC1806 (Homo sapiens, HCC1806, 168 h), 36200 nM.
For the compound `CN(C)C(=O)C1CCN(c2cc(S(=O)(=O)NC3(C#N)CC3)cn3c(-c4nnc(C(F)(F)F)s4)ncc23)CC1` [Example 214, 1-(6-(N-(1-cyanocyclopropyl)sulfamoyl)-3-(5-(trifluoromethyl)-1,3,4-thiadiazol-2-yl)imidazo[1,5-a]pyridin-8-yl)-N,N-dimethylpiperidine-4-carboxamide], the IC50 against PARG (PARG, TFMU-ADPr substrate) was determined as 174 nM; with HCC1806 (Homo sapiens, HCC1806, 168 h), 4000 nM.
Consider `CC1(NS(=O)(=O)c2cc(N3CCN(C(=O)[C@H]4CCN4)CC3)c3cnc(-c4nnc(C(F)(F)F)s4)n3c2)CC1` [Example 286, (R)-8-(4-(azetidine-2-carbonyl)piperazin-1-yl)-N-(1-methylcyclopropyl)-3-(5-(trifluoromethyl)-1,3,4-thiadiazol-2-yl)imidazo[1,5-a]pyridine-6-sulfonamide], for which the IC50 was 3.98 nM against PARG (PARG, TFMU-ADPr substrate) and 235 nM with HCC1806 (Homo sapiens, HCC1806, 168 h).
As for `COCC1CN(c2cc(S(=O)(=O)NC3(C)COC3)cn3c(-c4nnc(C(F)(F)F)s4)cnc23)CCN1` (stereo not drawn) [Example 360, 8-(3-(methoxymethyl)piperazin-1-yl)-N-(3-methyloxetan-3-yl)-3-(5-(trifluoromethyl)-1,3,4-thiadiazol-2-yl)imidazo[1,2-a]pyridine-6-sulfonamide], the IC50 stood at 36.3 nM at PARG (PARG, TFMU-ADPr substrate) and 637 nM in the test on HCC1806 (Homo sapiens, HCC1806, 168 h).
Turning to `COCC1CN(c2cc(S(=O)(=O)NC3(C)COC3)cn3c(-c4nnc(C(F)F)s4)nc(Cl)c23)CCN1` (stereo not drawn) [Example 127, 1-chloro-3-(5-(difluoromethyl)-1,3,4-thiadiazol-2-yl)-8-(3-(methoxymethyl)piperazin-1-yl)-N-(3-methyloxetan-3-yl)imidazo[1,5-a]pyridine-6-sulfonamide], the IC50 is 1.01 nM against PARG (PARG, TFMU-ADPr substrate) and 95 nM in the test with HCC1806 (Homo sapiens, HCC1806, 168 h).
On the same counts, the results for `CC1(NS(=O)(=O)c2cc(N3CCN(C(=O)c4ccc5c(c4)OCO5)CC3)c3cnc(-c4nnc(C(F)(F)F)s4)n3c2)CC1` [Example 307, 8-(4-(benzo[d][1,3]dioxole-5-carbonyl)piperazin-1-yl)-N-(1-methylcyclopropyl)-3-(5-(trifluoromethyl)-1,3,4-thiadiazol-2-yl)imidazo[1,5-a]pyridine-6-sulfonamide] are 4.13 nM and 540 nM.
As for `CN1CC(F)(C(=O)N2CCN(c3cc(S(=O)(=O)NC4(C)CC4)cn4c(-c5nnc(C(F)(F)F)s5)ncc34)CC2)C1` [Example 322, 8-(4-(3-fluoro-1-methylazetidine-3-carbonyl)piperazin-1-yl)-N-(1-methylcyclopropyl)-3-(5-(trifluoromethyl)-1,3,4-thiadiazol-2-yl)imidazo[1,5-a]pyridine-6-sulfonamide], the IC50 at PARG (PARG, TFMU-ADPr substrate) amounted to 16.5 nM; in the test on HCC1806 (Homo sapiens, HCC1806, 168 h) it was 334 nM.
Regarding `CC(C)C(=O)N1CCN(c2cc(S(=O)(=O)NC3CC3)cn3c(-c4nnc(C(F)(F)F)s4)nc(Cl)c23)CC1` [Example 121, 1-chloro-N-cyclopropyl-8-(4-isobutyrylpiperazin-1-yl)-3-(5-(trifluoromethyl)-1,3,4-thiadiazol-2-yl)imidazo[1,5-a]pyridine-6-sulfonamide], the IC50 against PARG (setting [1]) was less than 100 nM; against PARG (PARG, TFMU-ADPr substrate) it was 60.1 nM; with HCC1806 (Homo sapiens, HCC1806, 168 h) it was 2590 nM.
For `CC(C)C(=O)N1CCN(c2cc(S(=O)(=O)NC3(C)CC3)cn3c(-c4nnc(C(F)F)s4)ncc23)C[C@H]1CO` [Example 331, (S)-3-(5-(difluoromethyl)-1,3,4-thiadiazol-2-yl)-8-(3-(hydroxymethyl)-4-isobutyrylpiperazin-1-yl)-N-(1-methylcyclopropyl)imidazo[1,5-a]pyridine-6-sulfonamide], the IC50 is 0.44 nM against PARG (PARG, TFMU-ADPr substrate) and 78.1 nM in the test with HCC1806 (Homo sapiens, HCC1806, 168 h).
